Measurements published in paper PMC7395821 (Antiviral Research, 2020).

How the values were obtained:
eGFP-JEV [1] = assay: eGFP-JEV-based HTS assay in Huh7 cells; assay type: cell-based, Japanese encephalitis virus; conditions: 96-well, cytotoxic and false positive drugs excluded
eGFP-JEV [2] = assay: eGFP expression in eGFP-JEV infected BHK-21 cells; assay type: cell-based, Japanese encephalitis virus; conditions: BHK-21, eGFP-JEV MOI 0.1, two-fold dilutions, maximum 3 μM, 72 hpi
WT-JEV [3] = assay: Antiviral assay of WT-JEV in Huh7 cells, viral titer by plaque assay; conditions: for EC50: Japanese encephalitis virus, Huh-7, read-out: EC50 (50% reduction of viral titer); for SI (selective index, ratio of CC50 to EC50): Huh7 cells
Cytotoxicity assay = assay type: cell-based; conditions: human, Huh7 cells
JEV genome RNA = assay: Real-time RT-PCR of viral RNA in WT-JEV infected Huh7 cells; assay type: cell-based, Japanese encephalitis virus; conditions: WT-JEV MOI 0.5, various dosages, qRT-PCR at 48 hpi
WT-JEV [4] = assay: Time-of-addition assay; assay type: cell-based, Japanese encephalitis virus; conditions: Huh7, WT-JEV MOI 10, 5 μM, titers at 12 hpi

For `OC(c1cc(C(F)(F)F)nc2c(C(F)(F)F)cccc12)C1CCCCN1` (centres unmarked) [Mefloquine], the “hit status after HTS and dose-dependent reconfirmation with eGFP-JEV” value (“hit status” for short) (eGFP-JEV [1]) was “potent inhibitor of JEV”.

For `C#C[C@@]1(O)[C@H](O)[C@@H](CO)O[C@H]1n1ccc2c(N)ncnc21` [NITD008], the “effect on eGFP expression” value (eGFP-JEV [2]) was “dose-dependent inhibitory effects”.

In the case of `CCCCCCCCCCCCCCCC[N+](C)(C)C` [cetrimonium bromide], the EC50 (WT-JEV [3]) is reported as 2.23 µM, the CC50 at 48 h (Cytotoxicity assay) is reported as 7.88 µM and the “viral RNA copies” value (JEV genome RNA) is reported as “decreased in a dose-dependent manner”. The “hit status” value (eGFP-JEV [1]) was “newly discovered inhibitors of JEV”.

With `CCCCCCCCCCCCCCCC[n+]1ccccc1` [cetylpyridinium chlorid, cetylpyridinium chloride] the “viral RNA copies” value (JEV genome RNA) was “decreased in a dose-dependent manner” and the “hit status” value (eGFP-JEV [1]) was “newly discovered inhibitors of JEV”.

For `Oc1c(Cl)cc(Cl)c(Cl)c1Cc1c(O)c(Cl)cc(Cl)c1Cl` [hexachlorophene], the “SI (selective index, ratio of CC50 to EC50)” value (WT-JEV [3]) was over 10, the EC50 (WT-JEV [3]) was 0.421 µM and the CC50 at 48 h (Cytotoxicity assay) was 10 µM. The “hit status” value (eGFP-JEV [1]) was “newly discovered inhibitors of JEV”.

In the case of `CCOC(=O)C1=C(C)NC(C)=C(C(=O)OCC)C1c1ccccc1/C=C/C(=O)OC(C)(C)C` [lacidipine], the “hit status” value (eGFP-JEV [1]) is reported as “identified as hits”.

For `NC(=O)N1CCC(CC(=O)N2CCC([C@H]3c4ncc(Br)cc4CCc4cc(Cl)cc(Br)c43)CC2)CC1` [lonafarnib], the “SI (selective index, ratio of CC50 to EC50)” value (WT-JEV [3]) was over 10, the EC50 (WT-JEV [3]) was 0.982 µM and the CC50 at 48 h (Cytotoxicity assay) was 11.4 µM. For the same molecule, the “effect on virus propagation, compound added pre-infection (-1 to 0 h)” value (WT-JEV [4]) was “no effect on virus propagation”, the “reduction in viral titer, compound added during viral infection (0-1 h)” value (WT-JEV [4]) was 60% and the “viral titers, compound added post infection (1, 2, 4, 6, 8 h)” value (WT-JEV [4]) was “significantly reduced”. The “viral RNA copies” value (JEV genome RNA) was “decreased in a dose-dependent manner” and the “hit status” value (eGFP-JEV [1]) was “newly discovered inhibitors of JEV”.

With `COC(=O)C1=C(C)NC(C)=C(C(=O)OCCN2CCN(C(c3ccccc3)c3ccccc3)CC2)C1c1cccc([N+](=O)[O-])c1` (centres unmarked) [manidipine] the “hit status” value (eGFP-JEV [1]) was “identified as hits”.

With `COc1c(C)c2c(c(O)c1C/C=C(\C)CCC(=O)O)C(=O)OC2` [mycophenolic acid] the “hit status” value (eGFP-JEV [1]) was “identified as hits”.

With `O=[N+]([O-])c1ccc(O)c2ncccc12` [nitroxoline] the EC50 (WT-JEV [3]) was 2.48 µM, the CC50 at 48 h (Cytotoxicity assay) was 9.29 µM and the “viral RNA copies” value (JEV genome RNA) was “decreased in a dose-dependent manner”. For the same molecule, the “hit status” value (eGFP-JEV [1]) was “newly discovered inhibitors of JEV”.

For `CC[C@@H]1/C=C(\C)C[C@H](C)C[C@H](OC)[C@H]2O[C@@](O)(C(=O)C(=O)N3CCCC[C@H]3C(=O)O[C@H](/C(C)=C/[C@@H]3CC[C@H](Cl)[C@H](OC)C3)[C@H](C)[C@@H](O)CC1=O)[C@H](C)C[C@@H]2OC` [pimecrolimus], the “hit status” value (eGFP-JEV [1]) was “identified as hits”.

In the case of `CC(C)OC(=O)[C@H](C)N[P@](=O)(OC[C@H]1O[C@@H](n2ccc(=O)[nH]c2=O)[C@](C)(F)[C@@H]1O)Oc1ccccc1` [sofosbuvir], the “hit status” value (eGFP-JEV [1]) is reported as “active”.
